Laboratory results published in US10442807B2, “Aryl substituted bicyclic compounds as herbicides” (FMC Corporation, priority 2015, dated 2019).

Assays:
Type in all cases: in vivo
[1] = system: barnyardgrass (Echinochloa crus-galli); assay: Test B flooded paddy test, visual plant response rating; details: 250 g ai/ha; applied to paddy water at 2-leaf stage; rated after 13 to 15 days; scale 0 to 100, 0 is no effect, 100 is complete control
Source text: (§1) At time of treatment, test pots were flooded to 3 cm above the soil surface, treated by application of test compounds directly to the paddy water, and then maintained at that water depth for the duration of the test. Treated plants and controls were maintained in a greenhouse for 13 to 15 days, after which time all species were compared to controls and visually evaluated. Plant response ratings, summarized in Table B, are based on a scale of 0 to 100 where 0 is no effect and 100 is complete control. A dash (-) response means no test result.

[2] = system: ducksalad (Heteranthera limosa); assay: as above; details: 250 g ai/ha; applied to paddy water at 2-leaf stage; rated after 13 to 15 days; scale 0 to 100, 0 is no effect, 100 is complete control
Source text: as §1

rice (Oryza sativa) = assay: as above; details: 250 g ai/ha; applied to paddy water at 2-leaf stage; rated after 13 to 15 days; scale 0 to 100, 0 is no effect, 100 is complete control
Source text: as §1

[3] = system: sedge, umbrella (small-flower umbrella sedge, Cyperus difformis); assay: as above; details: 250 g ai/ha; applied to paddy water at 2-leaf stage; rated after 13 to 15 days; scale 0 to 100, 0 is no effect, 100 is complete control
Source text: as §1

[4] = system: barnyardgrass (Echinochloa crus-galli); assay: Test A preemergence, directed soil spray, visual injury rating; details: approx. 10 d, 0 = no effect, 100 = complete control
Source text: (§2) Seeds of plant species selected from barnyardgrass (Echinochloa crus-galli), kochia (Kochia scoparia), ragweed (common ragweed, Ambrosia elation), ryegrass, Italian (Italian ryegrass, Lolium multiflorum), foxtail, giant (giant foxtail, Setaria faberii), and pigweed (Amaranthus retroflexus), were planted into a blend of loam soil and sand and treated preemergence with a directed soil spray using test chemicals formulated in a non-phytotoxic solvent mixture which included a surfactant. At the same time, plants selected from these weed species and also blackgrass (Alopecurus myosuroides), galium (catchweed bedstraw, Galium aparine), wheat (Triticum aestivum), and corn (Zea mays) were planted in pots containing the same blend of loam soil and sand and treated with postemergence applications of test chemicals formulated in the same manner. Plants ranged in height from 2 to 10 cm and were in the one- to two-leaf stage for the postemergence treatment. Treated plants and untreated controls were maintained in a greenhouse for approximately 10 d, after which time all treated plants were compared to untreated controls and visually evaluated for injury. Plant response ratings, summarized in Table A, are based on a 0 to 100 scale where 0 is no effect and 100 is complete control. A dash (-) response means no test result.

[5] = system: foxtail, giant (giant foxtail, Setaria faberii); assay: as above; details: approx. 10 d, 0 = no effect, 100 = complete control
Source text: as §2

[6] = system: ragweed (common ragweed, Ambrosia elation); assay: as above; details: approx. 10 d, 0 = no effect, 100 = complete control
Source text: as §2

kochia (Kochia scoparia) [7] = assay: as above; details: approx. 10 d, 0 = no effect, 100 = complete control
Source text: as §2

[8] = system: ryegrass, Italian (Italian ryegrass, Lolium multiflorum); assay: as above; details: approx. 10 d, 0 = no effect, 100 = complete control
Source text: as §2

[9] = system: pigweed (Amaranthus retroflexus); assay: as above; details: approx. 10 d, 0 = no effect, 100 = complete control
Source text: as §2

[10] = system: barnyardgrass (Echinochloa crus-galli); assay: Test A postemergence application, visual injury rating; details: approx. 10 d, 0 = no effect, 100 = complete control
Source text: as §2

[11] = system: foxtail, giant (giant foxtail, Setaria faberii); assay: as above; details: approx. 10 d, 0 = no effect, 100 = complete control
Source text: as §2

[12] = system: blackgrass (Alopecurus myosuroides); assay: as above; details: approx. 10 d, 0 = no effect, 100 = complete control
Source text: as §2

[13] = system: ragweed (common ragweed, Ambrosia elation); assay: as above; details: approx. 10 d, 0 = no effect, 100 = complete control
Source text: as §2

kochia (Kochia scoparia) [14] = assay: as above; details: approx. 10 d, 0 = no effect, 100 = complete control
Source text: as §2

[15] = system: ryegrass, Italian (Italian ryegrass, Lolium multiflorum); assay: as above; details: approx. 10 d, 0 = no effect, 100 = complete control
Source text: as §2

[16] = system: galium (catchweed bedstraw, Galium aparine); assay: as above; details: approx. 10 d, 0 = no effect, 100 = complete control
Source text: as §2

[17] = system: pigweed (Amaranthus retroflexus); assay: as above; details: approx. 10 d, 0 = no effect, 100 = complete control
Source text: as §2

[18] = system: wheat (Triticum aestivum); assay: as above; details: approx. 10 d, 0 = no effect, 100 = complete control
Source text: as §2

corn (Zea mays) = assay: as above; details: approx. 10 d, 0 = no effect, 100 = complete control
Source text: as §2

With O=C(Nc1ccccc1F)C1C2=NCCCN2CC1c1cccc(C(F)(F)F)c1 (stereo not drawn) [Compound 1] the “Plant response rating, Flood, Barnyardgrass” value [1] was 0, the “Plant response rating, Flood, Ducksalad” value [2] was 70 and the “Plant response rating, Flood, Rice” value (rice (Oryza sativa)) was 0. The “Plant response rating, Flood, Sedge, Umbrella” value [3] was 50, the “Barnyardgrass plant response rating (0 to 100 scale)” value (shortened to “Barnyardgrass plant response rating”) ([4]; 125 g ai/ha) was 0 and the “Barnyardgrass plant response rating” value ([4]; 500 g ai/ha) was 70. For the same molecule, the “Foxtail, Giant plant response rating (0 to 100 scale)” value (“Foxtail, Giant plant response rating” for short) ([5]; 125 g ai/ha) was 0, the “Foxtail, Giant plant response rating” value ([5]; 500 g ai/ha) was 60 and the “Ragweed plant response rating (0 to 100 scale)” value (“Ragweed plant response rating” for short) ([6]; 125 g ai/ha) was 0. The “Ragweed plant response rating” value ([6]; 500 g ai/ha) was 0, the “Kochia plant response rating (0 to 100 scale)” value (from here on “Kochia plant response rating”) (kochia (Kochia scoparia) [7]; 125 g ai/ha) was 0 and the “Kochia plant response rating” value (kochia (Kochia scoparia) [7]; 500 g ai/ha) was 0. For the same molecule, the “Ryegrass, Italian plant response rating (0 to 100 scale)” value (“Ryegrass, Italian plant response rating” for short) ([8]; 125 g ai/ha) was 0, the “Ryegrass, Italian plant response rating” value ([8]; 500 g ai/ha) was 0 and the “Pigweed plant response rating (0 to 100 scale)” value (“Pigweed plant response rating” below) ([9]; 125 g ai/ha) was 0. For the same molecule, the “Pigweed plant response rating” value ([9]; 500 g ai/ha) was 0, the “Barnyardgrass plant response rating” value ([10]; 125 g ai/ha) was 0 and the “Barnyardgrass plant response rating” value ([10]; 500 g ai/ha) was 60. For the same molecule, the “Foxtail, Giant plant response rating” value ([11]; 125 g ai/ha) was 0, the “Foxtail, Giant plant response rating” value ([11]; 500 g ai/ha) was 40 and the “Blackgrass plant response rating (0 to 100 scale)” value ([12]; 125 g ai/ha) was 0. For the same molecule, the “Blackgrass plant response rating (0 to 100 scale)” value ([12]; 500 g ai/ha) was 0, the “Ragweed plant response rating” value ([13]; 125 g ai/ha) was 0 and the “Ragweed plant response rating” value ([13]; 500 g ai/ha) was 0. The “Kochia plant response rating” value (kochia (Kochia scoparia) [14]; 125 g ai/ha) was 0, the “Kochia plant response rating” value (kochia (Kochia scoparia) [14]; 500 g ai/ha) was 0 and the “Ryegrass, Italian plant response rating” value ([15]; 125 g ai/ha) was 0. The “Ryegrass, Italian plant response rating” value ([15]; 500 g ai/ha) was 0, the “Galium plant response rating (0 to 100 scale)” value ([16]; 125 g ai/ha) was 0 and the “Galium plant response rating (0 to 100 scale)” value ([16]; 500 g ai/ha) was 0. The “Pigweed plant response rating” value ([17]; 125 g ai/ha) was 0, the “Pigweed plant response rating” value ([17]; 500 g ai/ha) was 0 and the “Wheat plant response rating (0 to 100 scale)” value ([18]; 125 g ai/ha) was 0. For the same molecule, the “Wheat plant response rating (0 to 100 scale)” value ([18]; 500 g ai/ha) was 0, the “Corn plant response rating (0 to 100 scale)” value (corn (Zea mays); 125 g ai/ha) was 0 and the “Corn plant response rating (0 to 100 scale)” value (corn (Zea mays); 500 g ai/ha) was 20.
